From patent publication US12628857B2, “Compositions comprising human milk oligosaccharides for use in a subject to support night sleep duration” (SOCIETE DES PRODUITS NESTLE S.A., priority 2020, dated 2026)

Experiments:
breast-fed children [1] = assay: Correlation of breast milk HMO levels with sleep duration (BISQ), BCP-Enriched cohort; assay type: in vivo, human; conditions: FIG. 1
Description: (§1) The “BISQ” questionnaire is the brief infant sleep questionnaire, this questionnaire has been developed to screen sleep problems in infants and young children. This questionnaire has also been commonly used in sleep research to quantify quantity and quality of sleep as well as sleep maturation (Sadeh A. “Sleep assessment method” Monographs Soc Res Child Dev 80(1) 2015).
(§2) In the framework of the BISQ questionnaire one or more parameters are observed and recorded that are selected in the group consisting of: nocturnal sleep duration (between the hours of 7 pm and 7 am); daytime sleep duration (between the hours of 7 am and 7 pm); number of night awaking; duration of wakefulness during the night hours (10 pm to 6 am); nocturnal sleep-onset time (the clock time at which the child falls asleep for the night); settling time (latency to falling asleep for the night); method of falling asleep; location of sleep; and preferred body position. […]
A subset of typically developing children (n=92) enrolled in the BCP cohort aged between 0-20 months who were breast-fed at the time of visit were included in this study. […] The collected BMs were analyzed for HMOs, including 2′-Fucosyllactose (2FL), 3′-Fucosyllactose (3FL), 3′-Sialyllactose (3SL), 6′-Sialyllactose (6SL), Lacto-N-tetraose (LNT), Lacto-N-neotetraose (LNnT), Lacto-N-fucopentaose I (LNFP1), and A-Tetrasaccharide. […]

breast-fed children [2] = assay: Association of breast milk HMO levels with BISQ sleep parameters, LIFE Child cohort; assay type: in vivo, human; conditions: 3 months of age
Description: as §1, §2
A subset of typically developing children enrolled in the LIFE Child cohort aged between 0-12 months who were breast-fed at the time of visit were included in this study. and consists of breast milk samples—collected in mothers at 3, 6 and 12 months after child's birth—and questionnaires—collected during pregnancy and the first year of the child's life—containing information about children sleep and some related confounding factors. the analysis was conducted on 153 subjects at 3 months, 113 subjects at 6 months and 27 subjects at 12 months. The collected BMs were analyzed for HMOs, including 2′-Fucosyllactose (2FL), 3′-Fucosyllactose (3FL), 3′-Sialyllactose (3SL), 6′-Sialyllactose (6SL), Lacto-N-tetraose (LNT), Lacto-N-neotetraose (LNnT), Lacto-N-fucopentaose I (LNFP1), and A-Tetrasaccharide. The association between sleep parameters generated using the BISQ and breast milk HMO levels were evaluated using logistic regression models. […] Both LNT and total core-HMO correlated with total night sleep time assessed by the BISQ (p<0.05, FIGS. 3 and 4 respectively).

SMILES: CC(=O)N[C@H]1[C@H]([C@H](O)[C@H](O)CO)O[C@@](O[C@H]2[C@@H](O)[C@@H](CO)O[C@@H](O[C@H]3[C@H](O)[C@@H](O)C(O)O[C@@H]3CO)[C@@H]2O)(C(=O)O)C[C@@H]1O (stereo partly drawn) [3SL, (6R)-5-Acetamido-3,5-dideoxy-6-[(1R,2R)-1,2,3-trihydroxypropyl]-β-L-threo-hex-2-ulopyranonosyl-(2→3)-β-D-galactopyranosyl-(1→4)-D-glucopyranose]
- Correlation of total night-time sleep time with breast milk levels (breast-fed children [1]; BCP-Enriched, n=92, infant aged more than 11 months, p=0.05): correlate positively
- Correlation of total night time sleep with breast milk levels (breast-fed children [1]; BCP-enriched cohort, age >10 months, p<0.05): significantly correlated

SMILES: CC(=O)N[C@H]1[C@H](O[C@H]2[C@@H](O)[C@@H](CO)O[C@@H](O[C@H]3[C@H](O)[C@@H](O)C(O)O[C@@H]3CO)[C@@H]2O)O[C@H](CO)[C@@H](O)[C@@H]1O[C@@H]1O[C@H](CO)[C@H](O)[C@H](O)[C@H]1O (some centres unmarked) [LNT, Lacto-N-tetraose]
- Correlation of total night time sleep with breast milk levels (breast-fed children [2]; BISQ, p<0.05, FIGS. 3 and 4): significantly correlated
- Dependence of the night sleep association on the method to go to sleep (need of rocking) (breast-fed children [2]; FIG. 3): independent of the method to go to sleep
- Correlation of total sleep time with breast milk levels (breast-fed children [2]; p<0.05, FIG. 2): significantly correlated
